Laboratory results: ChEMBL document CHEMBL1133694, “Hydroxamic acid derivatives as potent peptide deformylase inhibitors and antibacterial agents” (J Med Chem, 2000)
In brackets after ≈: the same amount, converted by molar mass.

How the values were obtained:
[1] = system: Moraxella catarrhalis; experiment: In vitro antibacterial activity against isolated Moraxella catarrhalis RA21; format: functional
[2] = target: T1, Peptide deformylase (Escherichia coli, UniProt Q9JN24); experiment: Inhibitory activity against isolated Escherichia coli peptidyl deformylase (PDF) enzyme containing iron.
T1 sequence (Q9JN24 whole entry): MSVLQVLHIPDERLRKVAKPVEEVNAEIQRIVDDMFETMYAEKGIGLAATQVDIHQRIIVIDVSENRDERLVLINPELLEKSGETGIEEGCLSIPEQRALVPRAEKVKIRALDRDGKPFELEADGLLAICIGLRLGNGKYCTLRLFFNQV

[3] = system: Escherichia coli; experiment: In vitro antibacterial activity against isolated Escherichia coli DC2; format: functional
[4] = target: Collagenase 3 (Homo sapiens, UniProt P45452); experiment: Inhibition of Matrix metalloprotease-13
[5] = target: Angiotensin-converting enzyme (Homo sapiens, UniProt P12821)
[6] = target: Matrilysin (Homo sapiens, UniProt P09237); experiment: Inhibition of matrilysin, Matrix metalloprotease-7
[7] = target: T2, Interstitial collagenase (Homo sapiens, UniProt P03956); experiment: Inhibition of Matrix metalloprotease-1
T2 sequence (P03956 whole entry): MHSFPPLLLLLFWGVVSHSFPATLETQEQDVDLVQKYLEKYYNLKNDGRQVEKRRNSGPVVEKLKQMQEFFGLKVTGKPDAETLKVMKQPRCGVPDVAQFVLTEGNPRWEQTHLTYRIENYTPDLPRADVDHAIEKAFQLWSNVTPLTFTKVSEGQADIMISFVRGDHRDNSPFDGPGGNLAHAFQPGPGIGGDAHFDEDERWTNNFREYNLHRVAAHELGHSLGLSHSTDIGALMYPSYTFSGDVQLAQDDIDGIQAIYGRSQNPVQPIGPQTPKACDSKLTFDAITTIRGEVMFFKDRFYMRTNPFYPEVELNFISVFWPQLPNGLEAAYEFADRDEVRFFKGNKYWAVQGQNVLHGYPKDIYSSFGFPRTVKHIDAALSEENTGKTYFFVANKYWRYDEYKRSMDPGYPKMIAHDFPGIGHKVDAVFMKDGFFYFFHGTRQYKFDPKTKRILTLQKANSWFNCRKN

[8] = target: T3, Endothelin-converting enzyme 1 (Homo sapiens, UniProt P42892); experiment: Inhibitory activity against Endothelin-converting enzyme 1
T3 sequence (P42892 whole entry): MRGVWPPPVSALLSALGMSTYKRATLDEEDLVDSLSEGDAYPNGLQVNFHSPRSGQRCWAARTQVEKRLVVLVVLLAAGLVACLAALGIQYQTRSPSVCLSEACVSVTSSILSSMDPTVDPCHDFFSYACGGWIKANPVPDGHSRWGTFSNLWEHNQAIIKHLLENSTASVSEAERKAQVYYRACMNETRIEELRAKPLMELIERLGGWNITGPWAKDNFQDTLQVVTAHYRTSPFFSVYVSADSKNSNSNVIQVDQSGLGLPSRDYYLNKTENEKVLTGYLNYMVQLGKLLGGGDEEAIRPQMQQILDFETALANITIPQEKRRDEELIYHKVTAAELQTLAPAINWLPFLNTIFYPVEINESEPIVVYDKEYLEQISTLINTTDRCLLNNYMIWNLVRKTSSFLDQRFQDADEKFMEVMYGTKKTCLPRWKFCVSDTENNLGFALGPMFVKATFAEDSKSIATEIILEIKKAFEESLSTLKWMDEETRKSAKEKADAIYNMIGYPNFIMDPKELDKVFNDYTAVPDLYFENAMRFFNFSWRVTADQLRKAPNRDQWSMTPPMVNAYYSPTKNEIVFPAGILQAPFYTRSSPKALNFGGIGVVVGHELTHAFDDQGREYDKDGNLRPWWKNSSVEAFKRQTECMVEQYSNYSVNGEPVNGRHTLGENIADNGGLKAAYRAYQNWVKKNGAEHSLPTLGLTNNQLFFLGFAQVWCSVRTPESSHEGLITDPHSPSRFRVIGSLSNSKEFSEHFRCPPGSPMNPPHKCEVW

[9] = target: T4, Neprilysin (Rattus norvegicus, UniProt P07861); experiment: Inhibitory activity against endopeptidase enzyme (NEP).
T4 sequence (P07861 whole entry): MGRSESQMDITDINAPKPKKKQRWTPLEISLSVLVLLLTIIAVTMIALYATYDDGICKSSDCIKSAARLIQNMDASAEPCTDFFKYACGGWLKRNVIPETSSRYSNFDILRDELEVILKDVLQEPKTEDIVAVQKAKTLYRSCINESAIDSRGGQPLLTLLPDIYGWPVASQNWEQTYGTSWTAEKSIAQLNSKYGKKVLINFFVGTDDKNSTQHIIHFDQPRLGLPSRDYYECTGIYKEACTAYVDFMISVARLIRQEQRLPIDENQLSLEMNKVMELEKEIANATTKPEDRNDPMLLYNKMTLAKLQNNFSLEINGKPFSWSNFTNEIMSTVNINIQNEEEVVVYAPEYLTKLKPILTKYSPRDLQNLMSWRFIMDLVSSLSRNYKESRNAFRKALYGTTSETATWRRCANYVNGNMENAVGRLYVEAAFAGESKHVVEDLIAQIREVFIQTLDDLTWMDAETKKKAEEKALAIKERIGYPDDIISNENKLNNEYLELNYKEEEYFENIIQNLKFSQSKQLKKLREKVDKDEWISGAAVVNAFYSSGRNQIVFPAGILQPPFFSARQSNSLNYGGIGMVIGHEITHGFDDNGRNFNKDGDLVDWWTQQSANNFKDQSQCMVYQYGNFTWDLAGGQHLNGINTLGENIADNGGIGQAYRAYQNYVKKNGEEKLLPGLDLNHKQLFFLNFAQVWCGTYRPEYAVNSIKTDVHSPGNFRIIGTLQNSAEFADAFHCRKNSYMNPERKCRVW

[10] = target: Macrophage metalloelastase (Homo sapiens, UniProt P39900); experiment: Inhibition of human Matrix metalloprotease-12
[11] = target: T4, Neprilysin; experiment: Inhibitory activity against neutral endopeptidase enzyme (NEP).
[12] = Inhibitory activity against PDF isolated from Bacillus subtilis
[13] = system: Haemophilus influenzae; experiment: In vitro antibacterial activity against Haemophilus influenzae 11.; format: functional
[14] = system: peptide deformylase (Streptococcus pneumoniae); experiment: Inhibitory activity against PDF isolated from Streptococcus pneumoniae
[15] = system: Pseudomonas aeruginosa; experiment: In vitro antibacterial activity against Pseudomonas aeruginosa ATCC 27853.; format: functional
[16] = system: Streptococcus pneumoniae; experiment: In vitro antibacterial activity against Streptococcus pneumoniae 1/1 (penicillin resistant).; format: functional
[17] = system: Bacillus subtilis; experiment: In vitro antibacterial activity against Bacillus subtilis ATCC 585969.; format: functional
[18] = system: Streptococcus pneumoniae; experiment: In vitro antibacterial activity against Streptococcus pneumoniae ATCC 49619.; format: functional
[19] = system: Enterococcus faecium; experiment: In vitro antibacterial activity against Enterococcus faecium vanA E25_1.; format: functional
[20] = system: Enterococcus faecalis; experiment: In vitro antibacterial activity against Enterococcus faecalis ATCC 29212.; format: functional
[21] = system: Mycoplasmoides pneumoniae; experiment: In vitro antibacterial activity against Mycoplasma pneumoniae ATCC 29342.; format: functional
[22] = system: Staphylococcus aureus; experiment: In vitro antibacterial activity against Staphylococcus aureus ATCC 25923.; format: functional
[23] = system: Stenotrophomonas maltophilia; experiment: In vitro antibacterial activity against Stenotrophomonas maltophilia 1AC739.; format: functional
[24] = system: Escherichia coli; experiment: In vitro antibacterial activity against Escherichia coli ATCC 25922.; format: functional
[25] = system: Chlamydia pneumoniae; experiment: In vitro antibacterial activity against Chlamydia pneumoniae AR-39.; format: functional

Macrophage metalloelastase, sequence (P39900 whole entry): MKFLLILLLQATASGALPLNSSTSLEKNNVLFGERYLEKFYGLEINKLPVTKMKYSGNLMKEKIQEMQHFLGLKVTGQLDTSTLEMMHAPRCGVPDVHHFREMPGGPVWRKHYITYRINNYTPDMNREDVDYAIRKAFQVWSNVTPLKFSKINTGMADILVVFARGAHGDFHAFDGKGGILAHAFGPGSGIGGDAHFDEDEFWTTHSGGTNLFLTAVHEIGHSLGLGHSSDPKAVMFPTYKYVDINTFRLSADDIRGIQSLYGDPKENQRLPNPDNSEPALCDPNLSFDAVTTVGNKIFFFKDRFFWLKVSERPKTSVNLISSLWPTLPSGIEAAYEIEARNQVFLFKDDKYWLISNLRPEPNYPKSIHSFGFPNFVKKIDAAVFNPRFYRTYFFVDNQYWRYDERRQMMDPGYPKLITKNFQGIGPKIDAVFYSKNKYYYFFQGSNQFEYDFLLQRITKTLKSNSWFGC
Angiotensin-converting enzyme, sequence (P12821 whole entry): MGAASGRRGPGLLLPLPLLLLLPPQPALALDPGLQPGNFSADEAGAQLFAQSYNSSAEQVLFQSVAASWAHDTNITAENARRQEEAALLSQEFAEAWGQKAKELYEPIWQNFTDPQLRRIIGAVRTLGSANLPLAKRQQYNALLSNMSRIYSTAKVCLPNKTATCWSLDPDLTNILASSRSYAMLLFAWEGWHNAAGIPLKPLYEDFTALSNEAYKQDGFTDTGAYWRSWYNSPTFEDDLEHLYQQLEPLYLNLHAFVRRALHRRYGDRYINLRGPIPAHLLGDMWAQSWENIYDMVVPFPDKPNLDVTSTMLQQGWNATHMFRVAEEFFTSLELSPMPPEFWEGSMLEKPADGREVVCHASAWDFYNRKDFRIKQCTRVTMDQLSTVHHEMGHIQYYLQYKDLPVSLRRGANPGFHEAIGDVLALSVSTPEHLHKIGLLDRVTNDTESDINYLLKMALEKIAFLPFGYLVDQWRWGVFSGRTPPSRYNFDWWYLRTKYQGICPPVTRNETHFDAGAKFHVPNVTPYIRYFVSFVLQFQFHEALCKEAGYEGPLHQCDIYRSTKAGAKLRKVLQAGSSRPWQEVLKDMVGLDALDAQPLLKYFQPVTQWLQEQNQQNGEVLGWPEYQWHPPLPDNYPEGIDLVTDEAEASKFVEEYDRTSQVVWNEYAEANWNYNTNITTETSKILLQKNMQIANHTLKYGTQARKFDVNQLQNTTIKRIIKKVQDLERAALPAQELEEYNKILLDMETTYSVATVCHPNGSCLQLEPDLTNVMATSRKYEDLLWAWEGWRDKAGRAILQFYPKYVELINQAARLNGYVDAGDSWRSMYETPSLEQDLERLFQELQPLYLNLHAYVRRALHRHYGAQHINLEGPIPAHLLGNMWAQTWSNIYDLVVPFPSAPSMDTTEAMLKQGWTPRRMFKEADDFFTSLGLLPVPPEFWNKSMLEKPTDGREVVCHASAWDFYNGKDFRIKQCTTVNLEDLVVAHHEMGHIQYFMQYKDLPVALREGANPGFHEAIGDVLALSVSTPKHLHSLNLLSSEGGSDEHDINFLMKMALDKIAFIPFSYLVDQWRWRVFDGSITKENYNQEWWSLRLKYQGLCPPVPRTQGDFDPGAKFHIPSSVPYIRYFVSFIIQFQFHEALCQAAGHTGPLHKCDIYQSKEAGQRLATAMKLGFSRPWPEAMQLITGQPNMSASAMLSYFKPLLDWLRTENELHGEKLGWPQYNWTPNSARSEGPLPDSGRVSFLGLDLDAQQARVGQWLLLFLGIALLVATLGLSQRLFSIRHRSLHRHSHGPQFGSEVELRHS
Matrilysin, sequence (P09237 whole entry): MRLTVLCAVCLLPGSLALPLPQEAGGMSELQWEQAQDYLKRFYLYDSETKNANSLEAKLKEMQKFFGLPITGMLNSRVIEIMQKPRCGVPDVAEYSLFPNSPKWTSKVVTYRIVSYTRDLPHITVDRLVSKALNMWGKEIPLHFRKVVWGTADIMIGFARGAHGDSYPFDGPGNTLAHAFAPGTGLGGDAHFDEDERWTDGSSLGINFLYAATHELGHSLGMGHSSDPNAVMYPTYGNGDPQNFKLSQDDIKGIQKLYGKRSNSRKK

Structure (SMILES)	MIC [1] [µg/mL]	IC50 [2] [nM]	MIC [3] [µg/mL]	IC50 [4] [nM]	IC50 [5] [nM]	IC50 [7] [nM]	IC50 [8] [nM]	IC50 [10] [nM]	further results
CCCCCC(CC(=O)NO)S(=O)(=O)c1ccccc1 (stereo unspecified)	< 0.06	140	2 (≈ 6.68 µM)						
CCCC(CC(=O)NO)S(=O)(=O)c1ccccc1 (stereo unspecified)	4 (≈ 14.7 µM)	160	64 (≈ 236 µM)						
CCCCC(CC(=O)NO)[S+]([O-])c1cccc(OC)c1 (stereo unspecified)	0.25 (≈ 0.835 µM)	94	4 (≈ 13.4 µM)						
CCCCC(CC(=O)NO)S(=O)(=O)c1ccc2ccccc2c1 (stereo unspecified)	0.5 (≈ 1.49 µM)	23	8 (≈ 23.9 µM)	9	12400	70	450000	13	IC50 [6]: 1500 nM; IC50 [9]: 500 nM
CCCCCCS(=O)(=O)C(CCCC)CC(=O)NO (stereo unspecified)	4 (≈ 13.6 µM)		64 (≈ 218 µM)						
CCC(CC(=O)NO)S(=O)(=O)c1ccccc1 (stereo unspecified)	> 64		> 64						
CCCCC(CC(=O)NO)S(=O)(=O)C1CCCCC1 (stereo unspecified)	< 0.25		8 (≈ 27.5 µM)	100	> 100000	54	78000	14	IC50 [6]: 290 nM; IC50 [11]: 1650 nM
CCCCC(CC(=O)NO)S(=O)(=O)Cc1ccccc1 (stereo unspecified)	16 (≈ 53.4 µM)	190	128 (≈ 428 µM)						
CCCCC(CC(=O)NO)S(=O)(=O)c1ccccc1 (stereo unspecified)	< 0.25		8 (≈ 28 µM)	22	81000	110	> 50000	12	IC50 [12]: 96 nM; MIC [13]: 4 µg/mL (≈ 14 µM); IC50 [14]: 340 nM; MIC [15]: > 128 µg/mL; MIC [16]: 128 µg/mL (≈ 449 µM); MIC [17]: 1 µg/mL (≈ 3.5 µM); IC50 [11]: 18000 nM; MIC [18]: 128 µg/mL (≈ 449 µM); MIC [19]: > 128 µg/mL; MIC [20]: > 128 µg/mL; MIC [21]: 1 µg/mL (≈ 3.5 µM); MIC [22]: 256 µg/mL (≈ 897 µM); MIC [23]: 4 µg/mL (≈ 14 µM); MIC [24]: 128 µg/mL (≈ 449 µM); MIC [25]: 0.5 µg/mL (≈ 1.75 µM)
CCCCC(CC(=O)NO)[S+]([O-])c1ccc2ccccc2c1 (stereo unspecified)	< 0.25	64	2 (≈ 6.26 µM)						
CCCC[C@H](CC(=O)NO)S(=O)(=O)c1ccccc1	< 0.25		2 (≈ 7.01 µM)	79	34000	150	> 100000	42	MIC [13]: 2 µg/mL (≈ 7.01 µM); MIC [15]: > 128 µg/mL; MIC [17]: 1 µg/mL (≈ 3.5 µM); MIC [18]: 128 µg/mL (≈ 449 µM); IC50 [9]: 2500 nM; MIC [21]: 0.5 µg/mL (≈ 1.75 µM); MIC [22]: 128 µg/mL (≈ 449 µM); MIC [24]: 128 µg/mL (≈ 449 µM); MIC [25]: 0.5 µg/mL (≈ 1.75 µM)
O=C(CC(c1ccco1)S(=O)(=O)c1ccccc1)NO (stereo unspecified)	4 (≈ 13.5 µM)		32 (≈ 108 µM)						
CCCCC(CC(=O)NO)[S+]([O-])c1ccc(OC)cc1 (stereo unspecified)	< 0.25	99	2 (≈ 6.68 µM)						
